The values that follow come from patent publication US4229584A, “Ureylenebis(anionic substituted phenylene carbonyl)imino naphthalene sulfonic acids and naphthalene carboxylic acids and their salts” (American Cyanamid Company, priority 1978, dated 1980).

Counter-ions that a name gives are not always drawn. Like-named read-outs stand apart in the source and are kept apart here.

For one assay, the system named is complement system. The following applies: cited from earlier work; for anticomplementary effect: British Journal of Experimental Pathology, 33, 327-339 (1952).
The conditions of assay [1]: The New England Journal of Medicine, 286, 808-812 (1972); cited from earlier work.
The subject of assay [2] is late components of human complement (C3-C9). Nature of the assay: Test, Code 035 (C3-C9 inhibitor): lysis of EAC 142 by late components of human complement. Type of assay: cell-based. Conditions: activity in wells, twofold serial dilution; higher well number indicates higher activity. From the text:
(§1) An active inhibitor protects C2 from C1 and C4; (ii) Test, Code 035 (C3-C9 inhibitor)--This test determines the ability of the late components of human complement (C3-C9) to lyse EAC 142 in the presence of appropriate dilutions of the test compound. An active inhibitor protects EAC 142 from lysis by human C3-C9; (iii) Test, Code 036 (C-Shunt inhibitor)--In this test human erythrocytes rendered fragile are lysed in autologous serum via the shunt pathway activated by cobra venom factor in the presence of appropriate dilutions of the test compound. Inhibition of the shunt pathway results in failure of lysis; (iv) Forssman Vasculitis Test--Here, the well known complement dependent lesion, Forssman vasculitis, is produced in guinea pigs by intradermal injection of rabbit anti-Forssman antiserum. The lesion is measured in terms of diameter, edema and hemorrhage and the extent to which a combined index of these is inhibited by prior intraperitoneal injection of the test compound at 200 mg/kg is then reported, unless otherwise stated; (v) Forssman Shock Test--Lethal shock is produced in guinea pigs by an i.v. injection of anti-Forssman antiserum and the harmonic mean death time of treated guinea pigs is compared with that of simultaneous controls; (vi) Complement Level Reduction Test--In this test, the above dosed guinea pigs, or others, are bled for serum and the complement level is determined in undiluted serum by the capillary tube method of U.S. Pat. No. 3,876,376 and compared to undosed control guinea pigs; and (vii) Cap 50 Test--Here, appropriate amounts of the test compound are added to a pool of guinea pig serum in vitro, after which the undiluted serum capillary tube assay referred to above is run. The concentration of compound inhibiting 50% is reported.
(§2) **Activity in wells, a serial dilution assay. Higher well number indicate
(§3) higher activity. The serial dilutions are twofold.

In a further assay the test system is shunt pathway. Nature of the assay: Test, Code 036 (C-Shunt inhibitor): lysis of human erythrocytes in autologous serum via shunt pathway activated by cobra venom factor. Type of assay: cell-based. The following applies: activity in wells, twofold serial dilution; higher well number indicates higher activity.
Description: as §1, §2, §3

The test system of another assay is whole complement. The assay is described as follows: In vivo complement inhibition in guinea pigs (whole complement of serum, capillary tube assay). Further details: species or system guinea pig. Conditions: for change in vivo at 200 mg/kg: Cavia porcellus, ip.
Description: as §1
With reference to Table I, guinea pigs weighing about 300 g were dosed intravenously (i.v.) or intraperitoneally (i.p.) with 200 mg/kg of the test compound dissolved in saline and adjusted to pH 7-8. […] The serum was tested for whole complement using the capillary tube assay. Percent inhibition was calculated by comparison with simultaneous controls. The results appear in Table I together with results of tests, Code 026, 035, 036, Cap 50, percent inhibition and Forssman shock.

A further assay deals with T1, human C1 (Homo sapiens, UniProt P09871).
T1 construct: substrate fluid phase human C2, in presence of C4
T1 sequence (P09871 16-688): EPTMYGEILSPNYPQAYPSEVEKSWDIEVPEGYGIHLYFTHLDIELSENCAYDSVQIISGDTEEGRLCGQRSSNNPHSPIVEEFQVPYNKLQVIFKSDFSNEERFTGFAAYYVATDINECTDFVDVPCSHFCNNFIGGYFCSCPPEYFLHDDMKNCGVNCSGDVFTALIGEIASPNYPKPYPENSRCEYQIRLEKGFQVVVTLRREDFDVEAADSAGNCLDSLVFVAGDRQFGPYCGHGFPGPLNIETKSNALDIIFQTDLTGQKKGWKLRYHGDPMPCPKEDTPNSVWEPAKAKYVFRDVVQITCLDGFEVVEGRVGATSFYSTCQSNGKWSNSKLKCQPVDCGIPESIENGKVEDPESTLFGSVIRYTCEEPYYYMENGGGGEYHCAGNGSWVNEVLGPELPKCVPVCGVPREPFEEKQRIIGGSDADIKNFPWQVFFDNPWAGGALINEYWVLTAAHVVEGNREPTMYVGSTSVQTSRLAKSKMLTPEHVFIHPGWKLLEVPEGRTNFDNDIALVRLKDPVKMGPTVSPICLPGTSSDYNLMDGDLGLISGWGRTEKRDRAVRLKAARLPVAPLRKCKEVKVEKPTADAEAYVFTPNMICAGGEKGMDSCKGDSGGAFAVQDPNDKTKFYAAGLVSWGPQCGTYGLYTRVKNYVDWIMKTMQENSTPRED
T1 sequence (P00736 18-705 partner): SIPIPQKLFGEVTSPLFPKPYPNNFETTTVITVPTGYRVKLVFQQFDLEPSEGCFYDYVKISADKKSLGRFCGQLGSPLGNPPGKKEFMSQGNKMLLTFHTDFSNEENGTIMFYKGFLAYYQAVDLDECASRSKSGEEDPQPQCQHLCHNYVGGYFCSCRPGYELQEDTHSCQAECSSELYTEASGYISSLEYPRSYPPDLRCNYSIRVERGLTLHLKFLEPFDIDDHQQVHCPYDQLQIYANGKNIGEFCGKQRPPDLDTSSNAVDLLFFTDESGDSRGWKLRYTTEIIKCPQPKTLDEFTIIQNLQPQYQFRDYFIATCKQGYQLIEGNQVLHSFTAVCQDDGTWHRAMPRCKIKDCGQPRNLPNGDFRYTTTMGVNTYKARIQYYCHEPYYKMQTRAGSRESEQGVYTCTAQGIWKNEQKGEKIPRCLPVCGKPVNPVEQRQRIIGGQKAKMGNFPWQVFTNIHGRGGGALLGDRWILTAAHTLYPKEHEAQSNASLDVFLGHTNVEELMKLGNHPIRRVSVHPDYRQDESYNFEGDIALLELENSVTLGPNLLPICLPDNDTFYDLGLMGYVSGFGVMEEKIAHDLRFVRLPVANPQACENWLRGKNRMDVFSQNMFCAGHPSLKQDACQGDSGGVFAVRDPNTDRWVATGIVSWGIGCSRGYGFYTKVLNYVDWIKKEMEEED
T1 sequence (P02745 23-245 partner): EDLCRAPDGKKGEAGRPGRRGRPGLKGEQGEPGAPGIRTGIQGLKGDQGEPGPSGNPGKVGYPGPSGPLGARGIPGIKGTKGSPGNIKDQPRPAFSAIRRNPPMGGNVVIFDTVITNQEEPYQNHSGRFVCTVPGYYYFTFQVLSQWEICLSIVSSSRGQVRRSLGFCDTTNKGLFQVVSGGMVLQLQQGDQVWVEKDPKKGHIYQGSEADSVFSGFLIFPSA
T1 sequence (P02746 28-253 partner): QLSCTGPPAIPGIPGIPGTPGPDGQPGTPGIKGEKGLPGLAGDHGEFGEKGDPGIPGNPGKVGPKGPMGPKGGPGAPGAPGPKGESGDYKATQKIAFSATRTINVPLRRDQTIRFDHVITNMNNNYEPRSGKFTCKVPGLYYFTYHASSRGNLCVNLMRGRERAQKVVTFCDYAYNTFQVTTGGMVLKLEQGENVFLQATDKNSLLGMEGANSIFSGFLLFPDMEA
T1 sequence (P02747 29-245 partner): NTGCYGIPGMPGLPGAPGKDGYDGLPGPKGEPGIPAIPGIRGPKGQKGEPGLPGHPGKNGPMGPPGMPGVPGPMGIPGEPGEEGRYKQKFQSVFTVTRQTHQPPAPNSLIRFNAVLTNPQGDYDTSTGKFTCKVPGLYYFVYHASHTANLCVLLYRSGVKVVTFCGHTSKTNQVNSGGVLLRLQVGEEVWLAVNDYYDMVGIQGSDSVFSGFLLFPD
The assay is described as follows: Test, Code 026 (C1 inhibitor): protection of fluid phase human C2 from activated human C1. Type of assay: biochemical. Conditions: activity in wells, twofold serial dilution; higher well number indicates higher activity.
Description: as §1, §2, §3

[3] abbreviates: 0.5 h, intraperitoneal, 200 mg/kg, 30 mins., read-out: In Vivo Activity (Guinea Pig) % Inhibition Intraperitoneal 30 mins.
Where [4] appears, read: 1 h, intraperitoneal, 200 mg/kg, 60 mins., read-out: In Vivo Activity (Guinea Pig) % Inhibition Intraperitoneal 60 mins.
[5] abbreviates: 2 h, intraperitoneal, 200 mg/kg, 120 mins., read-out: In Vivo Activity (Guinea Pig) % Inhibition Intraperitoneal 120 mins.
[6] abbreviates: 0.5 h, read-out: In Vivo Activity (Guinea Pig) % Inhibition Intraperitoneal 30 mins.
Where [7] appears, read: 1 h, read-out: In Vivo Activity (Guinea Pig) % Inhibition Intraperitoneal 60 mins.
Where [8] appears, read: 2 h, read-out: In Vivo Activity (Guinea Pig) % Inhibition Intraperitoneal 120 mins.

For the molecule `Cc1ccc(C(=O)Nc2ccc(S(=O)(=O)O)c3cc(S(=O)(=O)O)cc(S(=O)(=O)O)c23)cc1NC(=O)c1cccc(NC(=O)Nc2cccc(C(=O)Nc3cc(C(=O)Nc4ccc(S(=O)(=O)O)c5cc(S(=O)(=O)O)cc(S(=O)(=O)O)c45)ccc3C)c2)c1` [Suramin], the “inhibition of the complement system” value in the assay on complement system (Clin. Exp. Immunol., 10, 127-138 (1972)) was “competitive inhibitor of the complement system”.
With `NCCCCCC(=O)O` [epsilon-aminocaproic acid], the “treatment of hereditary angioneurotic edema” value in assay [1] is reported as “used with success”.
Consider `O=C(Nc1cc(C(=O)O)cc(C(=O)Nc2ccc(S(=O)(=O)O)c3cc(S(=O)(=O)O)cc(S(=O)(=O)O)c23)c1)Nc1cc(C(=O)O)cc(C(=O)Nc2ccc(S(=O)(=O)O)c3cc(S(=O)(=O)O)cc(S(=O)(=O)O)c23)c1` [5,5'-Ureylenebis[N-(4,6,8-trisulfo-1-naphthyl)isophthalamic acid]octasodiumsalt], for which the “C-Late 035* Wells” value in assay [2] is listed as “+1 Wells”. Also, the “Shunt Inhibition 036* Wells” value with shunt pathway is listed as “+2 Wells”. The change in vivo at 200 mg/kg is -40% with whole complement (setting [3]), -49% in the assay with whole complement (setting [4]) and -71% with whole complement (setting [5]). Besides, the “C1 026* Wells” value at human C1 is “+5 Wells”.
For the molecule `O=C(Nc1ccc(C(=O)Nc2cc(S(=O)(=O)O)cc3cccc(S(=O)(=O)O)c23)c(S(=O)(=O)O)c1)Nc1ccc(C(=O)Nc2cc(S(=O)(=O)O)cc3cccc(S(=O)(=O)O)c23)c(S(=O)(=O)O)c1` [8,8'-[Ureylenebis(2-sulfo-4,1-phenylenecarbonyl)imino]di-1,6-naphthalenedisulfonic acid hexasodium salt], in assay [2], the “C-Late 035* Wells” value is on record as “+1 Wells”. Also, in the assay with shunt pathway, the “Shunt Inhibition 036* Wells” value is recorded as “+1 Wells”. The change in vivo at 200 mg/kg was -10% in the assay with whole complement (setting [3]), -18% with whole complement (setting [4]) and -31% with whole complement (setting [5]). The “C1 026* Wells” value at human C1 is reported as “+5 Wells”.
As for `O=C(Nc1cc(C(=O)O)cc(C(=O)Nc2cc(S(=O)(=O)O)cc3cc(S(=O)(=O)O)cc(S(=O)(=O)O)c23)c1)Nc1cc(C(=O)O)cc(C(=O)Nc2cc(S(=O)(=O)O)cc3cc(S(=O)(=O)O)cc(S(=O)(=O)O)c23)c1` [5,5'-Ureylenebis[N-(3,6,8-trisulfo-1-naphthyl)]isophthalamic acid octasodium salt], the “C-Late 035* Wells” value in assay [2] is “N”. For the same molecule, the “Shunt Inhibition 036* Wells” value in the assay on shunt pathway is reported as “+2 Wells”. For the same molecule, the change in vivo at 200 mg/kg was -37% in the assay with whole complement (setting [3]), -42% in the assay with whole complement (setting [4]) and -48% in the assay on whole complement (setting [5]). Also, in the assay on whole complement (intravenous, 200 mg/kg, 2 mins.), the “In Vivo Activity (Guinea Pig) % Inhibition Intravenous 2 mins.” value is recorded as -92%. Further, the “In Vivo Activity (Guinea Pig) % Inhibition Intravenous 30 mins.” value with whole complement (intravenous, 200 mg/kg, 30 mins.) is -44%. Moreover, in the assay with whole complement (intravenous, 200 mg/kg, 120 mins.), the “In Vivo Activity (Guinea Pig) % Inhibition Intravenous 120 mins.” value is -39%. The “C1 026* Wells” value on human C1 is on record as “+10 Wells”.
Regarding `O=C(Nc1ccc(C(=O)Nc2ccc(S(=O)(=O)[O-])c3cccc(S(=O)(=O)O)c23)c(S(=O)(=O)[O-])c1)Nc1ccc(C(=O)Nc2ccc(S(=O)(=O)O)c3cccc(S(=O)(=O)O)c23)c(S(=O)(=O)[O-])c1.[Na+].[Na+].[Na+]` [4,4'-{Ureylenebis[(2-sulfo-4,1-phenylenecarbonyl)imino]}-di-1,5-naphthalenedisulfonic acid trisodium salt], the “C-Late 035* Wells” value in assay [2] is given as “N”. In addition, in the assay on shunt pathway, the “Shunt Inhibition 036* Wells” value is “+1 Wells”. In addition, the results for the change in vivo at 200 mg/kg in the assay on whole complement (setting [6]), in the assay with whole complement (setting [7]) and in the assay with whole complement (setting [8]) were -10%, 6% and -6%, respectively. Besides, the “C1 026* Wells” value at human C1 is “+7 Wells”.
As to heparin, the anticomplementary effect result in the assay on complement system is “anticomplementary effect”.
`CC(=O)Nc1ccc2c(S(=O)(=O)O)cc(S(=O)(=O)O)cc2c1NC(=O)c1ccc(NC(=O)Nc2ccc(C(=O)Nc3c(NC(C)=O)ccc4c(S(=O)(=O)O)cc(S(=O)(=O)O)cc34)c(S(=O)(=O)O)c2)cc1S(=O)(=O)O` [5,5'-[Ureylenebis(2-sulfo-1,4-phenylenecarbonylimino)]bis[6-acetamido-1,3-naphthalenedisulfonic acid]hexasodium salt]: in assay [2], the “C-Late 035* Wells” value is “N”. In addition, in the assay on shunt pathway, the “Shunt Inhibition 036* Wells” value was “+1 Wells”. The change in vivo at 200 mg/kg with whole complement (setting [3]) is -19%; in the assay with whole complement (setting [4]), 8%; in the assay on whole complement (setting [5]) it was 4%. Also, the “C1 026* Wells” value on human C1 is given as “+8 Wells”.
For `Nc1ccc2cc(S(=O)(=O)O)cc(O)c2c1N=Nc1ccc(NC(=O)Nc2ccc(N=Nc3c(N)ccc4cc(S(=O)(=O)O)cc(O)c34)c(S(=O)(=O)O)c2)cc1S(=O)(=O)O` [chlorazol fast pink, 3,3'-ureylenebis-[6-(2-amino-8-hydroxy-6-sulfo-1-naphthylazo)]benzenesulfonic acid, tetrasodium salt], the anticomplementary effect entry in the assay with complement system was “anticomplementary effect”.
Regarding `O=C(Nc1ccc(C(=O)Nc2ccc(S(=O)(=O)[O-])c3cc(S(=O)(=O)[O-])cc(O)c23)c(S(=O)(=O)[O-])c1)Nc1ccc(C(=O)Nc2ccc(S(=O)(=O)[O-])c3cc(S(=O)(=O)[O-])cc(O)c23)c(S(=O)(=O)[O-])c1.[Na+].[Na+].[Na+].[Na+].[Na+].[Na+]` [4,4'-Ureylenebis[(2-sulfo-4,1-phenylenecarbonyl)imino]bis[5-hydroxy-1,7-naphthalenedisulfonic acid] hexasodium salt], the “C-Late 035* Wells” value in assay [2] is “N”. Moreover, the “Shunt Inhibition 036* Wells” value in the assay with shunt pathway was “+5 Wells”. The change in vivo at 200 mg/kg in the assay on whole complement (setting [6]) is 1%; in the assay with whole complement (setting [7]), -3%; in the assay with whole complement (setting [8]), -24%. At human C1, the “C1 026* Wells” value is given as “+7 Wells”.
For `COC(=O)c1cc(NC(=O)Nc2cc(C(=O)Nc3ccc(S(=O)(=O)O)c4cc(S(=O)(=O)O)cc(S(=O)(=O)O)c34)cc(C(=O)OC)c2)cc(C(=O)Nc2ccc(S(=O)(=O)O)c3cc(S(=O)(=O)O)cc(S(=O)(=O)O)c23)c1` [5,5'-Ureylenebis[N-(4,6,8-trisulfo-1-naphthyl)isophthalamic acid]dimethyl ester hexasodium salt], in assay [2], the “C-Late 035* Wells” value is “+1 Wells”. The “Shunt Inhibition 036* Wells” value in the assay with shunt pathway is listed as “+1 Wells”. In addition, the change in vivo at 200 mg/kg with whole complement (setting [3]) is -14%; in the assay with whole complement (setting [4]) it was -17%; in the assay on whole complement (setting [5]) it was -25%. Further, the “C1 026* Wells” value at human C1 is reported as “+4 Wells”.
Turning to `O=C(Nc1ccc(C(=O)Nc2ccc(S(=O)(=O)[O-])c3ccc(S(=O)(=O)[O-])cc23)c(S(=O)(=O)[O-])c1)Nc1ccc(C(=O)Nc2ccc(S(=O)(=O)[O-])c3ccc(S(=O)(=O)[O-])cc23)c(S(=O)(=O)[O-])c1.[Na+].[Na+].[Na+].[Na+].[Na+].[Na+]` [4,4'-{Ureylenebis[(2-sulfo-4,1-phenylenecarbonyl)imino]}-di-1,6-naphthalenedisulfonic acid hexasodium salt], the “C-Late 035* Wells” value in assay [2] is “N”. Besides, in the assay with shunt pathway, the “Shunt Inhibition 036* Wells” value was “N”. For the same molecule, the change in vivo at 200 mg/kg in the assay with whole complement (setting [6]) was -3%; with whole complement (setting [7]), -4%; in the assay on whole complement (setting [8]), 6%. The “C1 026* Wells” value on human C1 is “+5 Wells”.
On to `NC[C@H]1CC[C@H](C(=O)O)CC1` [tranexamic acid], for which, in assay [1], the “treatment of hereditary angioneurotic edema” value is “used with success”.
